# Experiment: Stability studies of CBD prepared via Protocol 3 (crude, pure, 2x recrystallized; 5° C., 25° C./60% RH, 40° C./75% RH)
# Format: physicochemical
smiles,measurement,setting,value
C=C(C)[C@@H]1CCC(C)=C[C@H]1c1c(O)cc(CCCCC)cc1O [Pure CBD (Recrystallized Twice)],Related substances by HPLC (low level): Δ9-Tetrahydrocannabinol,"25° C./60% RH, 0 month",11 ppm
same,Water content in % w/w,"25° C./60% RH, 0 month",<0.05%
same,Appearance,"25° C./60% RH, 1 month",Off-White
same,Assay by HPLC,"25° C./60% RH, 1 month",100.2%
same,Each unspecified impurity,"25° C./60% RH, 1 month",<0.03% (ND)
same,Related substances by HPLC (low level): Δ8-Tetrahydrocannabinol,"25° C./60% RH, 1 month",9 ppm
same,Related substances by HPLC (low level): Δ9-Tetrahydrocannabinol,"25° C./60% RH, 1 month",6 ppm
same,Related substances by HPLC: 4-Monobromo-CBD,"25° C./60% RH, 1 month",<0.03% (ND)
same,Related substances by HPLC: Olivetol,"25° C./60% RH, 1 month",<0.03% (ND)
same,"Related substances by HPLC: Sum of impurities, ≥0.05%","25° C./60% RH, 1 month",<0.05% (ND)
same,Related substances by HPLC: Δ8-Tetrahydrocannabinol,"25° C./60% RH, 1 month",<0.02% (ND)
same,Related substances by HPLC: Δ9-Tetrahydrocannabinol,"25° C./60% RH, 1 month",<0.02% (ND)
same,Appearance,"25° C./60% RH, 2 months",Oft-White
same,Assay by HPLC,"25° C./60% RH, 2 months",99.9%
same,Each unspecified impurity,"25° C./60% RH, 2 months",<0.03% (ND)
same,Related substances by HPLC (low level): Δ8-Tetrahydrocannabinol,"25° C./60% RH, 2 months",7 ppm
same,Related substances by HPLC (low level): Δ9-Tetrahydrocannabinol,"25° C./60% RH, 2 months",4 ppm
same,Related substances by HPLC: 4-Monobromo-CBD,"25° C./60% RH, 2 months",<0.03% (ND)
same,Related substances by HPLC: Olivetol,"25° C./60% RH, 2 months",<0.03% (ND)
same,"Related substances by HPLC: Sum of impurities, ≥0.05%","25° C./60% RH, 2 months",<0.05% (ND)
same,Related substances by HPLC: Δ8-Tetrahydrocannabinol,"25° C./60% RH, 2 months",<0.02% (ND)
same,Related substances by HPLC: Δ9-Tetrahydrocannabinol,"25° C./60% RH, 2 months",<0.02% (ND)
same,Appearance,"25° C./60% RH, 3 months",White
same,Assay by HPLC,"25° C./60% RH, 3 months",98.4%
same,Each unspecified impurity: RRT~1.980,"25° C./60% RH, 3 months",RRT~1.980: 0.03%
same,Related substances by HPLC (low level): Δ8-Tetrahydrocannabinol,"25° C./60% RH, 3 months",13 ppm
same,Related substances by HPLC (low level): Δ9-Tetrahydrocannabinol,"25° C./60% RH, 3 months",<4 ppm
same,Related substances by HPLC: 4-Monobromo-CBD,"25° C./60% RH, 3 months",<0.03% (ND)
same,Related substances by HPLC: Olivetol,"25° C./60% RH, 3 months",<0.03% (ND)
same,"Related substances by HPLC: Sum of impurities, ≥0.05%","25° C./60% RH, 3 months",<0.05%
same,Related substances by HPLC: Δ8-Tetrahydrocannabinol,"25° C./60% RH, 3 months",<0.02% (ND)
same,Related substances by HPLC: Δ9-Tetrahydrocannabinol,"25° C./60% RH, 3 months",<0.02% (ND)
same,Related substances by HPLC (low level): Δ9-Tetrahydrocannabinol,"40° C./75% RH, 0 month",11 ppm
same,Water content in % w/w,"40° C./75% RH, 0 month",<0.05%
same,Appearance,"40° C./75% RH, 1 month",Off-White
same,Assay by HPLC,"40° C./75% RH, 1 month",99.5%
same,Each unspecified impurity,"40° C./75% RH, 1 month",<0.03% (ND)
same,Related substances by HPLC (low level): Δ8-Tetrahydrocannabinol,"40° C./75% RH, 1 month",6 ppm
same,Related substances by HPLC (low level): Δ9-Tetrahydrocannabinol,"40° C./75% RH, 1 month",4 ppm
same,Related substances by HPLC: 4-Monobromo-CBD,"40° C./75% RH, 1 month",<0.03% (ND)
same,Related substances by HPLC: Olivetol,"40° C./75% RH, 1 month",<0.03% (ND)
same,"Related substances by HPLC: Sum of impurities, ≥0.05%","40° C./75% RH, 1 month",<0.05% (ND)
same,Related substances by HPLC: Δ8-Tetrahydrocannabinol,"40° C./75% RH, 1 month",<0.02% (ND)
same,Related substances by HPLC: Δ9-Tetrahydrocannabinol,"40° C./75% RH, 1 month",<0.02% (ND)
same,Appearance,"40° C./75% RH, 2 months",Off-White
same,Assay by HPLC,"40° C./75% RH, 2 months",101.7%
same,Each unspecified impurity,"40° C./75% RH, 2 months",<0.03% (ND)
same,Related substances by HPLC (low level): Δ8-Tetrahydrocannabinol,"40° C./75% RH, 2 months",6 ppm
same,Related substances by HPLC (low level): Δ9-Tetrahydrocannabinol,"40° C./75% RH, 2 months",<4 ppm (3 ppm)
same,Related substances by HPLC: 4-Monobromo-CBD,"40° C./75% RH, 2 months",<0.03% (ND)
same,Related substances by HPLC: Olivetol,"40° C./75% RH, 2 months",<0.03% (ND)
same,"Related substances by HPLC: Sum of impurities, ≥0.05%","40° C./75% RH, 2 months",<0.05% (ND)
same,Related substances by HPLC: Δ8-Tetrahydrocannabinol,"40° C./75% RH, 2 months",<0.02% (ND)
same,Related substances by HPLC: Δ9-Tetrahydrocannabinol,"40° C./75% RH, 2 months",<0.02% (ND)
same,Appearance,"40° C./75% RH, 3 months",Off-white
same,Assay by HPLC,"40° C./75% RH, 3 months",99.4%
same,Each unspecified impurity: RRT~1.981,"40° C./75% RH, 3 months",0.03%
same,Related substances by HPLC (low level): Δ8-Tetrahydrocannabinol,"40° C./75% RH, 3 months",14 ppm
same,Related substances by HPLC (low level): Δ9-Tetrahydrocannabinol,"40° C./75% RH, 3 months",<4 ppm
same,Related substances by HPLC: 4-Monobromo-CBD,"40° C./75% RH, 3 months",<0.03% (ND)
same,Related substances by HPLC: Olivetol,"40° C./75% RH, 3 months",<0.03% (ND)
same,"Related substances by HPLC: Sum of impurities, ≥0.05%","40° C./75% RH, 3 months",<0.05%
same,Related substances by HPLC: Δ8-Tetrahydrocannabinol,"40° C./75% RH, 3 months",<0.02% (ND)
same,Related substances by HPLC: Δ9-Tetrahydrocannabinol,"40° C./75% RH, 3 months",<0.02% (ND)
same,Appearance,"40° C./75% RH, 5 months",Off-white
same,Assay by HPLC,"40° C./75% RH, 5 months",98.9%
same,Each unspecified impurity: RRT~0.956,"40° C./75% RH, 5 months",0.04%
same,Related substances by HPLC (low level): Δ8-Tetrahydrocannabinol,"40° C./75% RH, 5 months",21 ppm
same,Related substances by HPLC (low level): Δ9-Tetrahydrocannabinol,"40° C./75% RH, 5 months",<4 ppm
same,Related substances by HPLC: 4-Monobromo-CBD,"40° C./75% RH, 5 months",<0.03% (ND)
same,Related substances by HPLC: Olivetol,"40° C./75% RH, 5 months",<0.03% (ND)
same,"Related substances by HPLC: Sum of impurities, ≥0.05%","40° C./75% RH, 5 months",<0.05%
same,Related substances by HPLC: Δ8-Tetrahydrocannabinol,"40° C./75% RH, 5 months",<0.02% (ND)
same,Related substances by HPLC: Δ9-Tetrahydrocannabinol,"40° C./75% RH, 5 months",<0.02% (ND)

# — patent US12144795B2, “Cannabidiol compositions having modified cannabinoid profiles” (priority 2018, dated 2024)
